Measured values from the NIST ThermoML archive (doi:10.1021/je400102p).
± gives the expanded uncertainty stated by the source.

Test: relative permittivity at various frequencies (dimensionless)
Conditions: Liquid, Frequency=0.001 MHz, Concentric Cylinder Capacitor

Cc1ccccc1 [toluene]
Conditions	relative permittivity
303.15 K, 312 kPa	2.37527 ± 0.00084
303.15 K, 1015 kPa	2.37634 ± 0.00084
303.15 K, 5058 kPa	2.38253 ± 0.00084
303.15 K, 10116 kPa	2.38999 ± 0.00084
303.15 K, 20221 kPa	2.40447 ± 0.00084
303.15 K, 30317 kPa	2.41824 ± 0.00086
303.15 K, 40408 kPa	2.43058 ± 0.00086
303.15 K, 50497 kPa	2.44313 ± 0.00086
303.15 K, 60603 kPa	2.45469 ± 0.00088
333.15 K, 402 kPa	2.31204 ± 0.00083
333.15 K, 995 kPa	2.3134 ± 0.00082
333.15 K, 5053 kPa	2.32081 ± 0.00082
333.15 K, 10114 kPa	2.32958 ± 0.00082
333.15 K, 20221 kPa	2.34637 ± 0.00082
333.15 K, 30317 kPa	2.36168 ± 0.00084
333.15 K, 40419 kPa	2.3756 ± 0.00084
333.15 K, 50510 kPa	2.38883 ± 0.00084
333.15 K, 60615 kPa	2.40129 ± 0.00086
363.15 K, 314 kPa	2.24824 ± 0.00081
363.15 K, 1010 kPa	2.2498 ± 0.00081
363.15 K, 5053 kPa	2.25867 ± 0.00081
363.15 K, 10108 kPa	2.26912 ± 0.00081
363.15 K, 10109 kPa	2.26918 ± 0.00081
363.15 K, 10111 kPa	2.26913 ± 0.00081
363.15 K, 20229 kPa	2.28839 ± 0.0008
363.15 K, 20231 kPa	2.28835 ± 0.0008
363.15 K, 20232 kPa	2.28831 ± 0.0008
363.15 K, 30317 kPa	2.30557 ± 0.00082
363.15 K, 30325 kPa	2.30571 ± 0.00082
363.15 K, 40408 kPa	2.32135 ± 0.00082
363.15 K, 50502 kPa	2.33608 ± 0.00084
363.15 K, 50510 kPa	2.33603 ± 0.00084
363.15 K, 60614 kPa	2.3499 ± 0.00084
363.15 K, 60624 kPa	2.34978 ± 0.00084
393.15 K, 1622 kPa	2.18753 ± 0.00077
393.15 K, 5063 kPa	2.19687 ± 0.00079
393.15 K, 5070 kPa	2.19705 ± 0.00079
393.15 K, 10114 kPa	2.20937 ± 0.00079
393.15 K, 10123 kPa	2.20955 ± 0.00079
393.15 K, 20223 kPa	2.23281 ± 0.00079
393.15 K, 20234 kPa	2.23259 ± 0.00079
393.15 K, 30331 kPa	2.2527 ± 0.00081
393.15 K, 40414 kPa	2.27067 ± 0.00081
